In PubChem BioAssay (NCI):
Values joined by “and” are separate entries in the source; they are usually repeats but may differ in a detail not shown here. Equal values may be shown once.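 Cultured in 96-well plates, cells were exposed to test compound for 48 hours across five concentrations. GI50 is the concentration that inhibits growth by half. Definition used: TGI = concentration required for complete inhibition of growth.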

Tests used:
Experiment in all cases: NCI tumour cell line growth inhibition, 48 h
[1] = system: ACHN renal
[2] = system: SK-MEL-5 melanoma
[3] = system: HT29 colon
[4] = system: MOLT-4 leukemia
[5] = system: HCT-116 colon
[6] = system: SNB-75 CNS
[7] = system: EKVX NSCLC
[8] = system: A549 NSCLC
[9] = system: HOP-92 NSCLC
[10] = system: K-562 leukemia

Compound	GI50 [1]	TGI [1]	GI50 [2]	TGI [2]	GI50 [3] [µM]	TGI [3]	GI50 [4]	TGI [4]	GI50 [5] [µM]	TGI [5]	GI50 [6] [µM]	TGI [6]	GI50 [7]	TGI [7]	GI50 [8]	TGI [8]	GI50 [9] [µM]	TGI [9]	GI50 [10]	TGI [10]
Oc1cc(O)c2c(=S)cc(-c3ccc(Cl)cc3)oc2c1	2.61 µM	11.1 µM	1.89 µM	5.04 µM	19.7	39.7 µM	3.76 µM	34.2 µM	2.84	10.4 µM	2.23	13.8 µM	9.36 µM	54.1 µM	6.58 µM	36.8 µM	1.62	5.11 µM	3.48 µM	22.3 µM
COC(=O)c1ccc([N+](=O)[O-])c(O)c1	–	> 100 µM	–	> 100 µM	–	> 100 µM	–	> 100 µM	–	> 100 µM	–	> 100 µM	–	> 100 µM	–	> 100 µM	–	> 100 µM	–	> 100 µM
COc1cccc(NC(=O)CC(=O)N2NC(C)C(N=Nc3cccc(C(=O)O)c3)C2=O)c1 (centres undefined)	–	> 100 µM	–	> 100 µM	–	> 100 µM	–	> 100 µM	–	> 100 µM	–	> 100 µM	–	> 100 µM	–	> 100 µM	–	> 100 µM	–	> 100 µM
CC(=O)OC1CCC2(C)C(=CCC3C2CCC2(C)C(C(C)C(=O)O)CCC32)C1 (centres undefined)	–	> 100 µM	–	> 100 µM	–	> 100 µM	–	> 100 µM	–	> 100 µM	–	> 100 µM	–	> 100 µM	–	> 100 µM	–	> 100 µM	–	> 100 µM
O=S1(=O)CS(=O)(=O)OCCCO1	–	> 100 µM	–	> 100 µM	–	> 100 µM	–	> 100 µM	–	> 100 µM	–	> 100 µM	–	> 100 µM	–	> 100 µM	–	> 100 µM	–	> 100 µM
N#CN1CCC[C@H]1C(=O)N1CCc2c(-c3[nH]nc4ncccc34)cccc21	< 0.01 µM	7.89 µM	0.0606 µM	0.126 µM	< 0.01	0.0129 µM	< 0.01 µM	11 µM	< 0.01	8.14 µM	0.211	2.78 µM	0.101 µM	25 µM	0.106 µM	> 25.1 µM	< 0.01	0.0809 µM	< 0.01 µM	> 37.8 µM
CCOC(=O)C1=C(C)NC2SC(=O)/C(=C\c3ccccc3)N2C1c1ccccc1 (centres undefined)	> 100 µM	> 100 µM	16.1 µM	> 100 µM	> 100	> 100 µM	–	–	67.5	> 100 µM	> 100	> 100 µM	> 100 µM	> 100 µM	> 100 µM	> 100 µM	> 100	> 100 µM	51.8 µM	> 100 µM
CCC1CC(=O)N(SCC(N)C(=O)O)C1=O (centres undefined)	–	> 100 µM	–	> 100 µM	–	> 100 µM	–	–	–	> 100 µM	–	> 100 µM	–	> 100 µM	–	> 100 µM	–	> 100 µM	–	> 100 µM
OC(COc1cccc2ccccc12)CN1CCN(c2ccccc2)CC1 (centres undefined)	16.2 µM	30.6 µM	15.9 µM	29.9 µM	15	30 µM	16.3 µM	56.3 µM	13.4	27 µM	13.7	27.2 µM	15.4 µM	32.3 µM	19.3 µM	36.6 µM	4.86	19 µM	13.7 µM	34 µM
N#CCC(=O)N/N=C1\C(=O)N(c2ccc(Cl)cc2)C(=O)C(=O)C1c1nc2ccccc2o1 (centres undefined)	–	> 100 µM	–	> 100 µM	–	> 100 µM	–	> 100 µM	–	> 100 µM	–	> 100 µM	–	> 100 µM	–	> 100 µM	–	> 100 µM	–	–
C[C@H]1CC(=O)C2=CCCC3(SCCCS3)[C@@H]2[C@H]1CO	–	> 100 µM	–	> 100 µM	–	> 100 µM	–	> 100 µM	–	> 100 µM	–	> 100 µM	–	> 100 µM	–	> 100 µM	–	> 100 µM	–	> 100 µM
O=C1/C(=C/c2ccccc2)CCC/C1=C\c1ccccc1	6.72 µM and 9.22 µM	12.1 µM and 29.2 µM and 26.2 µM	6.75 µM and 6.37 µM	12 µM and 26.4 µM and 19.6 µM	2.54	11.5 µM and 18.7 µM and 5.96 µM	15.1 µM and 11.1 µM	36.5 µM and 71.1 µM and 70.2 µM	–	5.86 µM and 3.09 µM and 3.33 µM	6.22	13.2 µM and 51.2 µM and 52.1 µM	7.8 µM and 15.8 µM	14.8 µM and 38.2 µM and 39.1 µM	7.66 µM and 17.5 µM	17.8 µM and 45.7 µM and 42.5 µM	6.48	13 µM and 35.2 µM and 37.3 µM	20.3 µM and 4.56 µM	36.5 µM and 32.9 µM and > 100 µM
COc1cc2cc[n+]3c4cc(OC)c(OC)cc4c(C)cc3c2cc1OC	–	> 100 µM	–	> 100 µM	–	> 100 µM	–	> 100 µM	–	> 100 µM	–	> 100 µM	–	> 100 µM	–	> 100 µM	–	> 100 µM	–	> 100 µM
O=C(c1cccs1)c1c(C(F)(F)F)n([O-])c2ccc(F)cc2[n+]1=O	1.5 µM	2.82 µM	1.22 µM	2.51 µM	0.868	2.47 µM	0.3 µM	1.02 µM	0.922	2.41 µM	1.47	2.82 µM	1.69 µM	3.7 µM	2.32 µM	7.02 µM	0.914	2.48 µM	0.0904 µM	0.27 µM
Cc1cc(-c2nc(-c3ccc(OC(F)(F)F)cc3)no2)nn1Cc1ccnc(N2CCN(C3CC3)CC2)c1	3.1 µM	> 100 µM	< 0.01 µM	2.45 µM	5.26	> 56.9 µM	3.73 µM	84.8 µM	< 0.01	> 100 µM	> 59.6	> 100 µM	< 0.01 µM	> 51.6 µM	2.55 µM	> 100 µM	1.55	81.4 µM	< 0.01 µM	> 100 µM
O=c1c2cc(Br)cc(Br)c2[nH]c(=S)n1-c1ccccc1	–	> 100 µM	–	> 100 µM	–	> 100 µM	–	–	–	> 100 µM	–	> 100 µM	–	> 100 µM	–	> 100 µM	–	> 100 µM	–	> 100 µM
